Drawing on ChEMBL document CHEMBL6103552, “Identification of peptide-based hepatitis B virus capsid inhibitors based on the viral core protein” (Bioorg Med Chem Lett, 2025), this text covers inhibition for 8 molecules.

Molecules are shown by their SMILES. Activity calls are given as the source filed them. No rule for the calls is given here.

Chain of Core antigen (Hepatitis B virus) (Q03732 as listed by the source): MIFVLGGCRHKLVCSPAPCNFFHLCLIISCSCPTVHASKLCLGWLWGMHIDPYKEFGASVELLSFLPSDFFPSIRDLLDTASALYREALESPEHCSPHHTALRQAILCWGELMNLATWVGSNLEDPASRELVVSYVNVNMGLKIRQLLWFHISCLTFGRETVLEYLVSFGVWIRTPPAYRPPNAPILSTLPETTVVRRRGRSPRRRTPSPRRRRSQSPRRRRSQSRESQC

This test concerns the target Core antigen (Hepatitis B virus) (UniProt Q03732). Description: Inhibition of Hepatitis B virus capsid formation at 100 uM treated during cell-free wild type HBV Cp synthesis using wheat germ lysates and HBV Cp RNA by Native capsid assay based western blot analysis. Format: subcellular. A general note: In western blotting, separated proteins are transferred to a membrane and probed.
On to `CC(C)C[C@H](NC(=O)[C@H](CC(C)C)NC(=O)[C@H](CCC(=O)O)NC(=O)[C@@H](NC(=O)[C@H](CO)NC(=O)[C@H](C)N)C(C)C)C(=O)N[C@@H](CO)C(=O)N[C@@H](Cc1ccccc1)C(=O)N[C@@H](CC(C)C)C(=O)N1CCC[C@H]1C(=O)N[C@@H](CO)C(=O)N[C@@H](CC(=O)O)C(=O)N[C@@H](Cc1ccccc1)C(=O)N[C@@H](Cc1ccccc1)C(=O)N1CCC[C@H]1C(N)=O`, for which the inhibition entry is “inactive”. For `CC(C)C[C@H](NC(=O)[C@H](CC(C)C)NC(=O)[C@H](CCC(=O)O)NC(=O)[C@@H](NC(=O)[C@H](CO)NC(=O)[C@H](C)NC(=O)CNC(=O)[C@H](Cc1ccccc1)NC(=O)[C@H](CCC(=O)O)NC(=O)[C@H](CCCCN)NC(=O)[C@@H](N)Cc1ccc(O)cc1)C(C)C)C(=O)N[C@@H](CO)C(=O)N[C@@H](Cc1ccccc1)C(=O)N[C@@H](CC(C)C)C(=O)N1CCC[C@H]1C(N)=O`, the inhibition result was “inactive”. Regarding `CC[C@H](C)[C@H](NC(=O)[C@@H](N)CO)C(=O)N[C@@H](CCCNC(=N)N)C(=O)N[C@@H](CC(=O)O)C(=O)N[C@@H](CC(C)C)C(=O)N[C@@H](CC(C)C)C(=O)N[C@@H](CC(=O)O)C(=O)N[C@H](C(=O)N[C@@H](C)C(=O)N[C@@H](CO)C(=O)N[C@@H](C)C(=O)N[C@@H](CC(C)C)C(=O)N[C@@H](Cc1ccc(O)cc1)C(=O)N[C@@H](CCCNC(=N)N)C(=O)N[C@@H](CCC(=O)O)C(N)=O)[C@@H](C)O`, the inhibition entry was “inactive”. On to `CC[C@H](C)[C@H](NC(=O)[C@H](C)NC(=O)[C@H](CCC(N)=O)NC(=O)[C@@H]1CCCN1)C(=O)N[C@@H](CC(C)C)C(=O)N[C@@H](CS)C(=O)N[C@@H](Cc1c[nH]c2ccccc12)C(=O)NCC(=O)N[C@@H](CCC(=O)O)C(=O)N[C@@H](CC(C)C)C(=O)N[C@@H](CCSC)C(=O)N[C@@H](CC(N)=O)C(=O)N[C@@H](CC(C)C)C(=O)N[C@@H](C)C(=O)N[C@H](C(N)=O)[C@@H](C)O`, for which the inhibition entry was “inactive”.

Regarding `CC[C@H](C)[C@H](NC(=O)[C@H](CC(=O)O)NC(=O)[C@@H](N)CCSC)C(=O)N[C@@H](CC(=O)O)C(=O)N1CCC[C@H]1C(=O)N[C@@H](Cc1ccc(O)cc1)C(=O)N[C@@H](CCCCN)C(=O)N[C@@H](CCC(=O)O)C(=O)N[C@@H](Cc1ccccc1)C(=O)NCC(=O)N[C@@H](C)C(=O)N[C@@H](CO)C(=O)N[C@H](C(=O)N[C@@H](CCC(=O)O)C(=O)N[C@@H](CC(C)C)C(N)=O)C(C)C`, the inhibition entry is “inactive”. `CC[C@H](C)[C@H](NC(=O)[C@H](CO)NC(=O)[C@@H]1CCCN1C(=O)[C@H](Cc1ccccc1)NC(=O)[C@H](Cc1ccccc1)NC(=O)[C@H](CC(=O)O)NC(=O)[C@@H](N)CO)C(=O)N[C@@H](CCCNC(=N)N)C(=O)N[C@@H](CC(=O)O)C(=O)N[C@@H](CC(C)C)C(=O)N[C@@H](CC(C)C)C(=O)N[C@@H](CC(=O)O)C(=O)N[C@H](C(=O)N[C@@H](C)C(=O)N[C@@H](CO)C(N)=O)[C@@H](C)O`: the inhibition entry is “inactive”. Consider `CC[C@H](C)[C@H](NC(=O)[C@H](CO)NC(=O)[C@@H]1CCCN1C(=O)[C@H](Cc1ccccc1)NC(=O)[C@H](Cc1ccccc1)NC(=O)[C@H](CC(=O)O)NC(=O)[C@H](CO)NC(=O)[C@@H]1CCCN1C(=O)[C@H](CC(C)C)NC(=O)[C@H](Cc1ccccc1)NC(=O)[C@H](CO)NC(=O)[C@@H](N)CC(C)C)C(=O)N[C@@H](CCCNC(=N)N)C(=O)N[C@@H](CC(=O)O)C(=O)N[C@@H](CC(C)C)C(N)=O`, for which the inhibition entry is “inactive”. Regarding `CSCC[C@H](NC(=O)[C@H](CC(C)C)NC(=O)[C@H](CCC(=O)O)NC(=O)CNC(=O)[C@H](Cc1c[nH]c2ccccc12)NC(=O)[C@@H](N)CS)C(=O)N[C@@H](CC(N)=O)C(=O)N[C@@H](CC(C)C)C(=O)N[C@@H](C)C(=O)N[C@H](C(=O)N[C@@H](Cc1c[nH]c2ccccc12)C(=O)N[C@H](C(=O)NCC(=O)N[C@@H](CO)C(=O)N[C@@H](CC(N)=O)C(N)=O)C(C)C)[C@@H](C)O`, the inhibition result is “inactive”.
